Reference: patent US8815305B2, “Composition containing a plant extract and process for producing same” (BASF Beauty Care Solutions France S.A.S., priority 2003, dated 2014)

Legend:
bovine chymotrypsin = bovine chymotrypsin (Bos taurus, UniProt P00766); conditions: competitive or non-competitive; cited from earlier work
bovine trypsin = target: T1, bovine trypsin (Bos taurus, UniProt P00760); conditions: competitive or non-competitive; cited from earlier work
T1 sequence (P00760 24-246): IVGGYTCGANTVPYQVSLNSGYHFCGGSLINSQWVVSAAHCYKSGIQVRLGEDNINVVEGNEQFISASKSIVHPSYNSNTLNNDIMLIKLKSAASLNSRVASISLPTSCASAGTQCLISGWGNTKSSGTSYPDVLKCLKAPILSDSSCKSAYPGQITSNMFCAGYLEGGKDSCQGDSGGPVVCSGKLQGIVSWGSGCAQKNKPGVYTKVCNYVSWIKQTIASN

[1] = test system: 5-lipoxygenase products in human neutrophils; conditions: cited from earlier work
[2] = test system: Croton oil induced oedema of the mouse ear; conditions: cited from earlier work
human fibroblasts = assay: Cytophotoprotection of human fibroblasts against UV-A radiation; assay type: cell-based
Procedure: The cytoprotection against UV-A radiation was evaluated by a test on human fibroblasts because UV-A radiation penetrates through the epidermis until the derma where it induces oxidative stress (DALLE CARBONARE M, PATHAK M A; Skin photosensitising agents and the role of reactive oxygen species in photoaging; JOURNAL OF PHOTOCHEMISTRY & PHOTOBIOLOGY, 1992, 14, 1-2, pages 105-124. This oxidative stress was evaluated in vitro by measuring of the level of released MDA (malonaldehyde) and of intracellular GSH (reduced glutathione) (Morliere P., Moisan A., Santus R., Huppe G., Mazière J. C., Dubertret L.: UV-A induced lipid peroxydation in cultured human fibroblasts. Biochim. Biophys. Acta, 1084, 3, pages 261-269 (1991)).
Expressed in keywords, the experiments were carried out as follows: • Inoculation of human fibroblasts within a growth medium (standard medium with foetal calf serum (FCS) • Incubation 3 days at 37° C., CO2=5% • Exchange of growth medium with balanced salt solution • Irradiation of fibroblasts by UV-A: 20 J/cm^2 (black light TFWN lamp) (A TFWN lamp is a certain type of marketed sunlamp well known to the skilled artisan) • Exchange of growth medium with standard medium without FCS but containing ingredient to be tested • Incubation 3 days at 37° C., CO2=5% • Recovery of supernatant medium for spectrophotometric determination of the malonaldialdehde (or MDA) rate • Cells number determined by evaluation of the levels of cellular proteins (Bradford's method) and the rate of cellular GSH was evaluated according to the method of Hissin

[3] = target: T2, human leucocyte elastase (HLE) (Homo sapiens, UniProt P08246); conditions: read-out: HLE inhibitory activity IC(50); cited from earlier work
T2 sequence (P08246 30-267): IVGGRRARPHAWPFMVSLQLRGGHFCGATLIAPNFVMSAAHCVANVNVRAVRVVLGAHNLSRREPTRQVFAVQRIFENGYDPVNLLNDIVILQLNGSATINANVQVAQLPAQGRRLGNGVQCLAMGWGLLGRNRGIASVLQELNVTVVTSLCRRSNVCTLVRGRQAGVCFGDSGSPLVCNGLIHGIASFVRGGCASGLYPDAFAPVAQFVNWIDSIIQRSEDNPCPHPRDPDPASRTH

[4] = target: porcine pancreatic elastase (Sus scrofa, UniProt P00772); conditions: cited from earlier work
leucine aminopeptidase [5] = conditions: cited from earlier work
leucine aminopeptidase [6] = conditions: cited from earlier work; remark: listed apart in the source
human keratinocytes = assay: Cytophotoprotection of human keratinocytes against UV-B radiation; assay type: cell-based; conditions: for Cell number, % against control / Released LDH, % against control / Released PGE2, % against control: UVB
Description: UV-B irradiation (from 280 to 320 nm) of the human skin induces a cutaneous inflammation mainly by activation of an enzyme (phospholipase A2 or PLA2), which releases arachidonic acid from the cell membranes of the cells of the skin (V. A. De Leo, D. Hanson, I. B. Weinstein and L. C. Harber—Ultraviolet radiation stimulates the release of arachidonic acid from mammalian cells in culture—Photochemistry and Photobiology (1985) volume 41N°1 pages 51-56). Then other specific enzymes (so called cyclo-oxygenases) transform arachidonic acid in active components called prostaglandines (or PG) which are secreted out of the cells. The fixation of certain prostaglandins (PGE2) on specific skin receptors is followed by redness and swelling as after a sunburn. On cultured human cells, these UV-B effects on cell membranes are associated with a release in the supernatant medium of a cytoplasmic enzyme, the Lactate Dehydrogenase or LDH (B. Bonnekoh, B. Farkas, J. Geisel and G. Mahrle—Lactate dehydrogenase release as an indicator of dithranol-induced membrane injury in cultured human keratinocytes. Dermatological research (1990) volume 282, pages 325-331).
Expressed in keywords, the experiments were carried out as follows: • Inoculation of human keratinocytes within growth medium (standard medium with fetal calf serum (FCS) • Incubation 3 days at 37° C., CO2=5% • Exchange of growth medium with balanced salt solution containing ingredient to be tested • Irradiation of keratinocytes by UV-B: 50 mJ/cm^2 (DUKE GL40E lamp) (A DUKE GL40E lamp is a certain type of marketed sunlamp well known to the skilled artisan) • Incubation 1 day at 37° C., CO2=5% • Numeration of adherent cells after trypsination (trypsination is a process based on the use of the enzyme trypsine which is a protease allowing the retrieval of cell from the support in order to seed the cells into a bigger flask and therefore to expand the cell culture) • Recovery of supernatant medium for spectrophotometric determination of the activity of LDH, and PGE2 by ELISA method

[7] = target: T2, human leucocyte elastase (HLE); conditions: cited from earlier work
elastase from pancreas = elastase from pancreas (Sus scrofa, UniProt P00772); assay: Elastase inhibition, Elastin-Congo red as substrate; assay type: biochemical; conditions: 30 minutes at room temperature, Elastin-Congo red
Procedure: This test was carried out with an elastase from pancreas on Elastin labelled with Congo red. The time of incubation was 30 minutes at room temperature and the optical density of released Congo red was recorded after centrifugation at a wavelength of 520 nm. al-antitrypsine was used as positive reference.
The following table summarizes the results expressed as EC 50 in % w/v. (EC 50 in % w/v is the concentration in % w/v which reduces the enzymatic activity by 50%.)

[8] = test system: skin chronic inflammation; conditions: in vivo; cited from earlier work

porcine pancreatic elastase, sequence (P00772 27-266): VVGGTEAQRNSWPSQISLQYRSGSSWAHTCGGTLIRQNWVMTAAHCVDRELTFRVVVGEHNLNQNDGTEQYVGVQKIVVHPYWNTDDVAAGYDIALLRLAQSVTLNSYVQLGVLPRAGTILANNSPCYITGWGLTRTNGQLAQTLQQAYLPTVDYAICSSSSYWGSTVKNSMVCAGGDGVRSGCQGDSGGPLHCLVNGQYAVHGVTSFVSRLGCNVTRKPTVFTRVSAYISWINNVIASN
elastase from pancreas, sequence (P00772 27-266): as above

Question: Which Ki (bovine chymotrypsin) does the source give for `CCCCCC=CCC=CCCCCCCCC(=O)OC1CCC2(C)C(CCC3(C)C2CC=C2C4C(C)C(C)CCC4(C)CCC23C)C1(C)C` (stereo not drawn) [alpha-amyrin linoleate] here?
Answer: 28 µM

Question: And the Ki (bovine trypsin)?
Answer: 16 µM

Question: Which “5-HETE synthesis” value [1] does the source give for `CC(=O)O[C@H]1CC[C@]2(C)[C@H]3CC=C4[C@@H]5[C@@H](C)[C@H](C)CC[C@]5(C)CC[C@@]4(C)[C@]3(C)CC[C@H]2C1(C)C` [alpha-amyrin acetate] here?
Answer: reduced

Question: What about the “LTB4 synthesis” value [1] of the same compound?
Answer: without effect

Question: Which “anti-oedematous activity” value [2] does the source give for `CC1=CCC2(C)CCC3(C)C(CCC4C5(C)CCC(O)C(C)(C)C5CCC43C)C2C1C` (stereo not drawn) [psi-taraxasterol] here?
Answer: slightly lower effect

Question: What does the source list for Tocopherol?
Answer: protection of human fibroblasts from toxic UVA effects (human fibroblasts): strongly protected; GSH/protein, % against control (human fibroblasts; UV-A 20 J/cm^2, dose 0.0003%): 89%; Released MDA, % against control (human fibroblasts; UV-A 20 J/cm^2, dose 0.0003%): 23%; cell's protein, % against control (human fibroblasts; UV-A 20 J/cm^2, dose 0.0003%): 106%

Question: With `C=C(C)[C@@H]1CC[C@]2(C)CC[C@]3(C)[C@H](CC[C@@H]4[C@@]5(C)CC[C@H](O)C(C)(C)[C@@H]5CC[C@]43C)[C@@H]12` [lupeol] as the compound, how does the IC50 [3] read?
Answer: 1.9 µM

Question: What about the “inhibition of porcine pancreatic elastase” value [4] of the same compound?
Answer: ineffective or very weak

Question: And the “inhibition of Helicoverpa punctigera leucine aminopeptidase” value (leucine aminopeptidase [5])?
Answer: ineffective or very weak

Question: And the “inhibition of Lucilia cuprina leucine aminopeptidase” value (leucine aminopeptidase [6])?
Answer: ineffective or very weak

Question: What about the Ki (bovine chymotrypsin) of the same compound?
Answer: 8 µM

Question: What about the Ki (bovine trypsin) of the same compound?
Answer: 22 µM

Question: For `COc1ccc2c(c1)c(CC(=O)O)c(C)n2C(=O)c1ccc(Cl)cc1` [Indomethacine, Indomethacin], which “UV toxic effects on the number of viable cells (cell number and released LDH)” value (human keratinocytes) is on record?
Answer: moderately reduced

Question: What about the “release of inflammatory mediators such as PGE2” value (human keratinocytes) of the same compound?
Answer: drastically reduced

Question: And the “Cell number, % against control” value (human keratinocytes)?
Answer: 34%

Question: And the “Released LDH, % against control” value (human keratinocytes)?
Answer: 77%

Question: What about the “Released PGE2, % against control” value (human keratinocytes) of the same compound?
Answer: 0%

Question: With `CC1(C)CC[C@]2(C(=O)O)CC[C@]3(C)C(=CC[C@@H]4[C@@]5(C)CC[C@H](O)[C@@](C)(CO)[C@@H]5CC[C@]43C)[C@@H]2C1` [hederagenin] as the compound, how does the “interaction with the ursolic acid binding site of HLE” value [7] read?
Answer: can also interact with this binding site

Question: With `CC1(C)CC[C@]2(C)CC[C@]3(C)C(=CC[C@@H]4[C@@]5(C)CC[C@H](O)C(C)(C)[C@@H]5CC[C@]43C)[C@@H]2C1` [beta-amyrin] as the compound, how does the “5-HETE synthesis” value [1] read?
Answer: reduced

Question: And the “LTB4 synthesis” value [1]?
Answer: without effect

Question: For `CC1(C)[C@@H](O)CC[C@]2(C)[C@H]3C(=O)C=C4[C@@H]5C[C@@](C)(C(=O)O)CC[C@]5(C)CC[C@@]4(C)[C@]3(C)CC[C@@H]12` [18 beta-glycyrrhetic acid], which “interaction with the ursolic acid binding site of HLE” value [7] is on record?
Answer: can also interact with this binding site

Question: Which results are given for `C[C@H]1[C@H](C)CC[C@]2(C)CC[C@]3(C)C(=CC[C@@H]4[C@@]5(C)CC[C@H](O)C(C)(C)[C@@H]5CC[C@]43C)[C@H]12` [alpha-amyrin]?
Answer: inhibition of porcine pancreatic elastase [4]: ineffective or very weak; inhibition of Helicoverpa punctigera leucine aminopeptidase (leucine aminopeptidase [5]): ineffective or very weak; inhibition of Lucilia cuprina leucine aminopeptidase (leucine aminopeptidase [6]): ineffective or very weak; Ki (bovine chymotrypsin): 18 µM; Ki (bovine trypsin): 29 µM

Question: With `C[C@H]1C(=O)CC[C@@H]2[C@]1(C)CC[C@H]1[C@@]2(C)CC[C@@]2(C)[C@@H]3CC(C)(C)CC[C@]3(CO)CC[C@]12C` [canophyllol] as the compound, how does the IC50 [3] read?
Answer: 2.5 µM

Question: What does the source list for `CC(=O)Oc1ccccc1C(=O)O` [Aspirin]?
Answer: UV toxic effects on the number of viable cells (cell number and released LDH) (human keratinocytes): distinctly reduced; release of inflammatory mediators such as PGE2 (human keratinocytes): distinctly reduced; Cell number, % against control (human keratinocytes; dose 0.0003%): 67%; Released LDH, % against control (human keratinocytes; dose 0.0003%): 13%; Released PGE2, % against control (human keratinocytes; dose 0.0003%): 0%

Question: Which Ki (bovine chymotrypsin) does the source give for `CCCCCCCCCCCCCCCC(=O)O[C@H]1CC[C@]2(C)[C@H]3CC=C4[C@@H]5[C@@H](C)[C@H](C)CC[C@@]5(C)CC[C@@]4(C)[C@]3(C)CC[C@H]2C1(C)C` [alpha-Amyrin palmitate] here?
Answer: 6 µM

Question: For faradiol-3-myristic acid ester, which “anti-oedematous activity” value [2] is on record?
Answer: nearly the same dose dependent anti-oedematous activity

Question: With `C=C(C)[C@@H]1CC[C@]2(C)CC[C@]3(C)[C@H](CC[C@@H]4[C@@]5(C)CC[C@H](OC(=O)CCCCCCCCCCCCCCC)C(C)(C)[C@@H]5CC[C@]43C)[C@@H]12` [lupeol palmitate] as the compound, how does the Ki (bovine trypsin) read?
Answer: 10 µM

Question: With `CC(=O)O[C@H]1CC[C@]2(C)[C@H]3CC=C4[C@@H]5CC(C)(C)CC[C@]5(C)CC[C@@]4(C)[C@]3(C)CC[C@H]2C1(C)C` [beta-amyrin acetate] as the compound, how does the “5-HETE synthesis” value [1] read?
Answer: reduced

Question: And the “LTB4 synthesis” value [1]?
Answer: without effect

Question: What does the source list for `CC1=CC[C@@]2(C)[C@H]([C@@H]1C)[C@H]1CC[C@@H]3[C@@]4(C)CC[C@H](O)C(C)(C)[C@@H]4CC[C@@]3(C)[C@]1(C)C[C@@H]2O` [faradiol]?
Answer: anti-oedematous activity [2]: more active than its esters and than psi-taraxasterol; anti-oedematous effect compared with indomethacin ([2]; equimolar dose): same effect

Question: Which “Elastase EC 50 (concentration which reduces the enzymatic activity by 50%)” value (elastase from pancreas) does the source give for “A1 anti trypsine: positive reference of the elastase test” here?
Answer: 0.03% w/v

Question: For `C[C@H]1[C@H](C)CC[C@]2(C(=O)O)CC[C@]3(C)C(=CC[C@@H]4[C@@]5(C)CC[C@H](O)C(C)(C)[C@@H]5CC[C@]43C)[C@H]12` [ursolic acid], which IC50 [3] is on record?
Answer: 4.4 µM

Question: And the Ki ([7]; hydrolysis of peptide substrates in phosphate-buffered saline, read-out: inhibition constant, HLE)?
Answer: 4 to 6 µM

Question: What about the “activity on chronic dermal inflammation” value [8] of the same compound?
Answer: significantly effective

Question: For `CCCCCCCCCCCCCCCC(=O)OC1CCC2(C)C(CCC3(C)C2CCC2C4C(C)C(C)=CCC4(C)C(O)CC23C)C1(C)C` (stereo not drawn) [faradiol-3-palmitic acid ester], which “anti-oedematous activity” value [2] is on record?
Answer: nearly the same dose dependent anti-oedematous activity

Question: With `C=C(C)[C@@H]1CC[C@]2(C)CC[C@]3(C)C(CC[C@@H]4[C@@]5(C)CC[C@H](OC(=O)CCCCCCC/C=C/C/C=C/CCCCC)C(C)(C)[C@@H]5CC[C@]43C)[C@@H]12` (stereo partly drawn) [Lupeol linoleate] as the compound, how does the Ki (bovine trypsin) read?
Answer: 7 µM
